Reference: publication PMC2265061, “Compound Cytotoxicity Profiling Using Quantitative High-Throughput Screening” (Environmental Health Perspectives, 2007)
“Also recorded” adds a separate entry of the source. Read-outs that look alike come from different tables or passages of the source.

Key:
HEK293 = assay type: cell-based
Experimental: (§1) We measured cell viability using a luciferase-coupled ATP quantitation assay (CellTiter-Glo; Promega, Madison, WI). In this assay, luminescent signal is proportional to amount of ATP and thus to the number of metabolically competent cells; cell injury and death result in a dramatic decrease in intracellular ATP levels ([Crouch et al. 1993]). Cells were dispensed at 1,000–2,000 cells/5 μL/well in tissue-culture treated 1,536-well white/solid bottom assay plates (Greiner Bio-One North America, Monroe, NC) using a Flying Reagent Dispenser (Aurora Discovery, Carlsbad, CA). All but Jurkat cells (which are grown in suspension) were incubated at 37°C for 5–6 hr to allow for cell attachment, followed by addition of compounds via pin tool (Kalypsys, San Diego, CA). […] At the end of the incubation period, 5 μL of CellTiter-Glo reagent was added, plates were incubated at room temperature for 30 min, and the luminescence intensity of each well was determined using a ViewLux plate reader (PerkinElmer, Shelton, CT).
(§2) Compound formatting and qHTS were performed as described previously ([Inglese et al. 2006]).
(§3) Analysis of compound concentration–response data was performed as previously described ([Inglese et al. 2006]). […] Compound activity correlations between different assays or experiments were assessed by calculating the Pearson correlation coefficient. […]

[1] = test system: 13 human and rodent cell types; conditions: for Species selectivity of cytotoxicity (human versus rodent cell types): nine human versus four rodent cell types
Source text: Human renal mesangial cells obtained from adult kidney tissue were kindly provided by J. Kopp (National Institute of Diabetes and Digestive and Kidney Diseases, NIH, Bethesda, MD). Rat renal proximal tubule cells were freshly isolated from rat kidney by In Vitro ADMET Laboratories, LLC (Rockville, MD). All cells chosen for testing represent target tissues of interest in toxicology from both human and rodent sources; most were transformed lines, but some were nontransformed or primary cells. All are well-characterized cells, produce uniform populations, are relatively easy to culture, and are amenable to a 1,536-well format.
as §1, with “In this assay, luminescent signal is proportional to amount of ATP and thus to the number of metabolically competent cells; cell injury and death result in a dramatic decrease in intracellular ATP levels ([Crouch et al. 1993]).” left out
(§4) Class 1 or 2 compounds were further divided into subclasses based on efficacy and quality of fit (R^2). Compounds with R^2 > 0.9 and high (> 80%) efficacy were designated as subclass a, and compounds with R^2 > 0.9 and low efficacies (30–80%) as subclass b. […] Compound activity correlations between different assays or experiments were assessed by calculating the Pearson correlation coefficient. Hierarchical clustering of compound activity patterns across different assays was performed within Spotfire DecisionSite 8.2 (Spotfire Inc., Cambridge, MA) using the correlation of log IC50 values as the similarity metric.

HepG2 cells = test: Real-time cell electronic sensing (RT-CES) cytotoxicity assay; assay type: cell-based, Human; conditions: HepG2, RT-CES impedance, 0.14 to 100 μM
Experimental: HepG2 cells in the presence of compounds at concentrations from 0.14 to 100 μM were monitored by measurements of electrical impedance (ACEA Biosciences Inc., San Diego, CA) every 10 min for the first hour, then every hour for 70–90 hr.

NIH 3T3 = assay type: cell-based, Mouse
Experimental: as §1, §2, §3

SK-N-SH = conditions: mean ± SD
Experimental: as §1, §2
as §4, with “Analysis of compound concentration–response data was performed as previously described ([Inglese et al. 2006]). […] Concentration–response titration points for each compound were fitted to the Hill equation ([Hill 1910]), yielding concentrations of half-maximal inhibition (IC50) and maximal response (efficacy) values. […] Class” for “Class”

HUV-EC-C = conditions: mean ± SD
Experimental: as §1, §2
as §4, with “Analysis of compound concentration–response data was performed as previously described ([Inglese et al. 2006]). […] Concentration–response titration points for each compound were fitted to the Hill equation ([Hill 1910]), yielding concentrations of half-maximal inhibition (IC50) and maximal response (efficacy) values. […] Class” for “Class”

Jurkat = conditions: mean ± SD
Experimental: as §1, §2
as §4, with “Analysis of compound concentration–response data was performed as previously described ([Inglese et al. 2006]). […] Concentration–response titration points for each compound were fitted to the Hill equation ([Hill 1910]), yielding concentrations of half-maximal inhibition (IC50) and maximal response (efficacy) values. […] Class” for “Class”

BJ = conditions: mean ± SD
Experimental: as §1, §2
as §4, with “Analysis of compound concentration–response data was performed as previously described ([Inglese et al. 2006]). […] Concentration–response titration points for each compound were fitted to the Hill equation ([Hill 1910]), yielding concentrations of half-maximal inhibition (IC50) and maximal response (efficacy) values. […] Class” for “Class”

N2a = conditions: mean ± SD
Experimental: as §1, §2
as §4, with “Analysis of compound concentration–response data was performed as previously described ([Inglese et al. 2006]). […] Concentration–response titration points for each compound were fitted to the Hill equation ([Hill 1910]), yielding concentrations of half-maximal inhibition (IC50) and maximal response (efficacy) values. […] Class” for “Class”

SH-SY5Y = test system: SH-SY5Y
Experimental: as §1, §2
as §4, with “Analysis of compound concentration–response data was performed as previously described ([Inglese et al. 2006]). […] Concentration–response titration points for each compound were fitted to the Hill equation ([Hill 1910]), yielding concentrations of half-maximal inhibition (IC50) and maximal response (efficacy) values. […] Class” for “Class”

Mesangial = conditions: mean ± SD
Experimental: as §1, §2
as §4, with “Analysis of compound concentration–response data was performed as previously described ([Inglese et al. 2006]). […] Concentration–response titration points for each compound were fitted to the Hill equation ([Hill 1910]), yielding concentrations of half-maximal inhibition (IC50) and maximal response (efficacy) values. […] Class” for “Class”

H-4-II-E = conditions: mean ± SD
Experimental: as §1, §2
as §4, with “Analysis of compound concentration–response data was performed as previously described ([Inglese et al. 2006]). […] Concentration–response titration points for each compound were fitted to the Hill equation ([Hill 1910]), yielding concentrations of half-maximal inhibition (IC50) and maximal response (efficacy) values. […] Class” for “Class”

HepG2 = conditions: HepG2, mean ± SD
Experimental: as §1, §2
as §4, with “Analysis of compound concentration–response data was performed as previously described ([Inglese et al. 2006]). […] Concentration–response titration points for each compound were fitted to the Hill equation ([Hill 1910]), yielding concentrations of half-maximal inhibition (IC50) and maximal response (efficacy) values. […] Class” for “Class”

[2] = test system: Rat kidney proximal tubule; conditions: mean ± SD
Experimental: as §1, §2
as §4, with “Analysis of compound concentration–response data was performed as previously described ([Inglese et al. 2006]). […] Concentration–response titration points for each compound were fitted to the Hill equation ([Hill 1910]), yielding concentrations of half-maximal inhibition (IC50) and maximal response (efficacy) values. […] Class” for “Class”

MRC-5 = conditions: MRC-5, mean ± SD
Experimental: as §1, §2
as §4, with “Analysis of compound concentration–response data was performed as previously described ([Inglese et al. 2006]). […] Concentration–response titration points for each compound were fitted to the Hill equation ([Hill 1910]), yielding concentrations of half-maximal inhibition (IC50) and maximal response (efficacy) values. […] Class” for “Class”

Cc1ccc2c(c1[N+](=O)[O-])C(=O)c1ccccc1C2=O [2-methyl-1-nitroanthraquinone]
Cell type-selective toxicity (HEK293; in HEK293 cells): selective toxicity

C[C@@H]1C[C@@H]([C@H](O)CC2CC(=O)NC(=O)C2)C(=O)[C@@H](C)C1 [cycloheximide]
Cytotoxicity pattern across the 13 cell types ([1]; human, rat, mouse): cytotoxic in all but two cell types (MRC-5 and SH-SY5Y)
Kinetic response (cell index over time) (HepG2 cells): inhibited cell proliferation but did not decrease cell number below what was present at the time of addition

C[C@@H]1CC[C@@]2(OC1)O[C@H]1[C@@H](O)[C@H]3[C@@H]4CC[C@H]5C[C@@H](O[C@@H]6O[C@H](CO)[C@H](O[C@@H]7O[C@H](CO)[C@@H](O)[C@H](O[C@@H]8OC[C@@H](O)[C@H](O)[C@H]8O)[C@H]7O[C@@H]7O[C@H](CO)[C@H](O)[C@H](O[C@@H]8O[C@H](CO)[C@@H](O)[C@H](O)[C@H]8O)[C@H]7O)[C@H](O)[C@H]6O)[C@H](O)C[C@]5(C)[C@H]4CC[C@]3(C)[C@H]1[C@@H]2C [digitonin]
Cytotoxicity pattern across the 13 cell types ([1]; 0.59 nM to 92 μM, 40 hr): cytotoxicity in all cell types at similar concentrations; also recorded: cytotoxic in all 13 cell types; also recorded: uniformly toxic across all cell types
Exposure time to full cytotoxicity (HepG2 cells): 10 min

C[C@H]1O[C@@H](O[C@H]2[C@@H](O)C[C@H](O[C@H]3[C@@H](O)C[C@H](O[C@H]4CC[C@@]5(C)[C@H](CC[C@@H]6[C@@H]5C[C@@H](O)[C@]5(C)[C@@H](C7=CC(=O)OC7)CC[C@]65O)C4)O[C@@H]3C)O[C@@H]2C)C[C@H](O)[C@@H]1O [digoxin]
Species selectivity of cytotoxicity (human versus rodent cell types) [1]: more toxic to human cells

CN(C)c1ccc(N=Nc2ccccc2)cc1 [dimethylaminoazobenzene]
Species selectivity of cytotoxicity (human versus rodent cell types) [1]: more toxic to rodent cells

O=C(Nc1ccccc1)Nc1ccccc1 [diphenylurea]
Species selectivity of cytotoxicity (human versus rodent cell types) [1]: toxicity in cells from one species but not the other

COc1cccc2c1C(=O)c1c(O)c3c(c(O)c1C2=O)C[C@@](O)(C(=O)CO)C[C@@H]3O[C@H]1C[C@H](N)[C@H](O)[C@H](C)O1 [doxorubicin]
Cytotoxicity pattern across the 13 cell types ([1]; 0.59 nM to 92 μM, 40 hr): toxic in all cell types; also recorded: cytotoxic in all 13 cell types
Exposure time to complete cytotoxicity (HepG2 cells): 35 h

CN(C)c1ccc(C(=C2C=CC(=[N+](C)C)C=C2)c2ccc(N(C)C)cc2)cc1.[Cl-] [hexamethyl-p-rosaniline chloride]
Cytotoxicity pattern across the 13 cell types [1]: cytotoxicity in all cell types at similar concentrations

CN(C)c1ccc(C(=C2C=CC(=[N+](C)C)C=C2)c2ccccc2)cc1.CN(C)c1ccc(C(=C2C=CC(=[N+](C)C)C=C2)c2ccccc2)cc1.O=C(O)C(=O)O.O=C([O-])C(=O)O.O=C([O-])C(=O)O [malachite green oxalate]
Cytotoxicity pattern across the 13 cell types [1]: cytotoxicity in all cell types at similar concentrations

[CH3][Hg][Cl] [methyl mercuric (II) chloride]
Potency in NIH 3T3 relative to the next most responsive cell type (NIH 3T3): 50 fold

Cl.N=C1C=CC(=C(c2ccc(N)cc2)c2ccc(N)cc2)C=C1 [pararosaniline hydrochloride]
Cytotoxicity pattern across the 13 cell types ([1]; 0.59 nM to 92 μM, 40 hr): cytotoxicity in all cell types at similar concentrations

CC(=O)[O][Hg][c]1ccccc1 [phenyl mercuric acetate]
Cytotoxicity pattern across the 13 cell types [1]: uniformly toxic across all cell types

[K+].[K+].[O]=[Cr](=[O])([O-])[O][Cr](=[O])(=[O])[O-] [potassium dichromate]
Cytotoxicity pattern across the 13 cell types [1]: cytotoxic in all 13 cell types
Exposure time to complete cytotoxicity (HepG2 cells): 35 h

CC/C(=C(\c1ccccc1)c1ccc(OCCN(C)C)cc1)c1ccccc1 [tamoxifen]
Hill coefficient (SK-N-SH): 3.4 ± 0.7
Hill coefficient (HUV-EC-C): 4.2 ± 0.5
Hill coefficient (Jurkat): 2.0 ± 0.2
Hill coefficient (BJ): 3.1 ± 1.0
Hill coefficient (N2a): 4.0 ± 0.8
Hill coefficient (SH-SY5Y; SH-SY5Y, mean ± SD): 3.1 ± 0.7
Hill coefficient (Mesangial): 2.4 ± 0.8
Hill coefficient (H-4-II-E): 2.7 ± 0.8
Hill coefficient (HepG2): 4.4 ± 0.5
Hill coefficient [2]: 4.7 ± 0.3
Hill coefficient (MRC-5): 2.9 ± 1.2
Hill coefficient (HEK293; HEK293, mean ± SD): 3.8 ± 1.0
Hill coefficient (NIH 3T3; NIH 3T3, mean ± SD): 2.6 ± 0.8

CN(C)C(=S)SSC(=S)N(C)C [tetra-methylthiuram disulfide]
Potency in SH-SY5Y relative to the next most responsive cell type (SH-SY5Y; more potent in SH-SY5Y): 250 fold
